Experimental data taken from paper PMC5424463, “A strategy based on nucleotide specificity leads to a subfamily-selective and cell-active inhibitor of N ^6-methyladenosine demethylase FTO” (Chemical Science, 2014).

Legend:
JMJD2A = molecular target: T1, JMJD2A (Homo sapiens, UniProt O75164); assay: MALDI-based inhibition assay for JMJD2A; type: biochemical; conditions: ARK(me3)STGGK substrate
T1 construct: pNIC28-Bsa4 JMJD2A (encompassing residues 1-359); inferred from Ni-NTA purification and the pNIC28-Bsa4 vector; made in house; host or cells: E. coli BL21 (DE3) Rosetta T1R
T1 sequence (O75164 1-359): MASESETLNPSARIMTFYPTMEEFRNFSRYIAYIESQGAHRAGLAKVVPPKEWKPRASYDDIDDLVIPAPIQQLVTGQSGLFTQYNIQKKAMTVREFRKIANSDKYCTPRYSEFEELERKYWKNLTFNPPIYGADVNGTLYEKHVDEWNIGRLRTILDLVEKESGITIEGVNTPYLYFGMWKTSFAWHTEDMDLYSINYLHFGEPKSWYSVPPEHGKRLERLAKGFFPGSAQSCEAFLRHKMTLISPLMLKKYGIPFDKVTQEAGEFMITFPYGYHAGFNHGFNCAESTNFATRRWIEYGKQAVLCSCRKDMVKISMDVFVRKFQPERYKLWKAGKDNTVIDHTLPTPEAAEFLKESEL
Protocol: min, before 1:1 quenching with methanol. 1 uL of the diluted assay mixture was then mixed with 1 uL of α-cyano-4-hydroxycinnamic acid (CHCA, the MALDI-TOF-MS matrix, Sigma-Aldrich) and spotted onto the MALDI-TOF-MS plate before analysis. The CHCA matrix consisted of 10 mg/mL CHCA in 50% MeCN/Milli-Q H2O containing 0.1% TFA. The percentage inhibition was estimated based on the relative intensities of the unhydroxylated substrate and the hydroxylated product observed in the mass spectra. For IC50 determination, eight different concentrations of inhibitors were used (0, 1, 3, 10, 30, 100, 300, 1000 µM); the IC50s were then calculated from the variation in percentage hydroxylation at different inhibitor concentrations, using nonlinear regression, with normalized dose-response fit on […]
MALDI-based inhibition assay for JMJD2A
The assay was performed as previously reported, with modifications.[20] A peptide substrate with the sequence ARK(me3)STGGK (GL Biochem (Shanghai) Ltd) was used in this inhibition assay. The assay was performed in triplicate for each inhibitor, in a final reaction volume of 25 µL. […]
IC50s were then calculated from the variation in percentage demethylation at different

PHD2 = system: PHD2; parameters: method as in PMID 16858410; conditions: known inhibitor; cited from earlier work
FTO = molecular target: T2, FTO (Homo sapiens, UniProt Q9C0B1); assay: HPLC-based inhibition assay for FTO, m3T substrate; type: biochemical; conditions: HPLC-based demethylase assay, m3T substrate; read-out: IC50 (FTO)
T2 construct: The human full length FTO construct used in this study; made in house; host or cells: E. coli BL21 (DE3) Rosetta T1R
Protocol: HPLC-based inhibition assays for FTO
The assay was modified from previously reported method.[17] It is performed in triplicate for each inhibitor, in a final reaction volume of 25 µL. Reaction consisted of FTO (1 µM), 2OG (50 µM), (NH4)2Fe(SO4)2·6H2O (50 µM), L-ascorbate (2 mM), 3-methylthymidine (m3T substrate, 10 µM) in 50 mM HEPES buffer, pH 7.5, and inhibitor at various concentrations (final DMSO concentration not more than 1% v/v of assay mix). The reaction was incubated at 4°C for 1 h, before analysis on a HPLC system. The substrate (m3T) and the demethylated product (thymidine) were separated using a Zorbax C18 column (4.6 mm x 250 mm) with a […]
flow rate of 1 mL/min at room temperature.
The percentage inhibition was estimated based on the peak areas of the 3-methylthymidine substrate and the thymidine product. For IC50 determination, eight different concentrations of […]
the variation in percentage demethylation at different inhibitor concentrations, using nonlinear regression, with normalized dose-response fit on GraphPad Prism 6.0™.
HPLC-based assay for FTO was also performed using an m6A-ssRNA as substrate. The assay was modified from previously reported method.[21] All reaction conditions are as described for the inhibition of m3T demethylation above, except that a 15-mer ssRNA with the sequence 5’-CUUGUCA(m6A)CAGCAGA-3’ (Yale University, W.M. Keck Foundation Biotechnology Resource Laboratory) was used as substrate (10 µM). The reaction was analysed on a bio-inert HPLC system. The m6A-ssRNA substrate and the corresponding demethylated product were separated using a Dionex DNAPac PA200 anion-exchange

T2 sequence (Q9C0B1 whole entry): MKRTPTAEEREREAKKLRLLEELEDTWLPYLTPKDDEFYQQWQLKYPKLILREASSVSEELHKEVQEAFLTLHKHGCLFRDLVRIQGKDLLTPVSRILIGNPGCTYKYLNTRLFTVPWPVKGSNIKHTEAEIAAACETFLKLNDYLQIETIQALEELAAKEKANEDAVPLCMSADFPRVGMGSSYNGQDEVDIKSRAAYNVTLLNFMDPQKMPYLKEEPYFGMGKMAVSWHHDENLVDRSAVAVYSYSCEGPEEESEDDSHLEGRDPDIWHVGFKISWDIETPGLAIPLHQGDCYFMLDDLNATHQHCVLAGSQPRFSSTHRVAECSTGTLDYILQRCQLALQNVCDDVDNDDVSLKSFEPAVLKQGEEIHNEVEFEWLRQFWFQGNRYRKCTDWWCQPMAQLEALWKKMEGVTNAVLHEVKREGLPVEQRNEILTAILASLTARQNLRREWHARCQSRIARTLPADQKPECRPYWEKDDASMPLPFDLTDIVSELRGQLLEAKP

**Q.** Which IC50 (JMJD2A) does the source give for O=C(O)/C=C/C(=O)NNC(=O)c1cnccc1Cc1ccccc1 [Compound 12] here?
**A.** > 300 µM

**Q.** Which IC50 (PHD2) does the source give for O=C(O)/C=C/C(=O)NNC(=O)c1cccnc1 [Compound 21] here?
**A.** 0.082 µM

**Q.** Which IC50 (FTO) does the source give for O=C(O)C=CC(=O)NNC(=O)c1cc(Cc2ccccc2)ccn1 [Compound 22] here?
**A.** 86.8 µM

**Q.** With O=C(O)/C=C/C(=O)NNC(=O)c1ccccn1 [Compound 23] as the molecule, how does the IC50 (FTO) read?
**A.** 109 µM
